Assay results reported in patent publication US20260206761A1, “HETEROARYL-TRIAZOLE COMPOUNDS AS PESTICIDES” (Bayer Aktiengesellschaft, priority 2019, published 2026).

Columns and labels:
Format in all cases: in vivo
[1] = system: fall armyworm larvae (Spodoptera frugiperda); experiment: Spodoptera frugiperda spray test; conditions: 168 h, read-out: activity (mortality)
Procedure, shortened: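 Compound in acetone/DMF, diluted in water with 1000 ppm alkylarylpolyglycol ether emulsifier, sprayed on maize leaf sections. Dried leaves infested with fall armyworm larvae; % mortality after 7 days (100% = all killed, 0% = none).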

[2] = system: Aedes aegypti strain MONHEIM; experiment: Aedes aegypti test (AEDSAE surface treatment & contact assay); conditions: 24 hours after contact, read-out: efficacy (mortality); for mortality at 20 mg/m2: surface concentration 20 mg/m^2, exposure 30 minutes; for mortality at 4 mg/m2: surface concentration 4 mg/m^2, exposure 30 minutes
Procedure, shortened: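 Compound in acetone (2 mg/ml) with 2000 ppm RME pipetted onto glazed tile and dried; adult Aedes aegypti MONHEIM exposed 30 min. Percent mortality scored 24 h after contact.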

[3] = system: Rhipicephalus microplus larvae (strain Parkhurst, resistant against synthetic pyrethroids); experiment: Rhipicephalus (Boophilus) microplus in-vitro contact test, larval cattle tick; conditions: after 48 hours, read-out: activity (efficacy: larvae dead or moribund); for pest or weed control at 100 g/ha: application rate 1 pg/cm^2 (=100 g/ha); for pest or weed control at 500 g/ha: application rate 5 pg/cm^2 (=500 g/ha)
Procedure, shortened: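 Acetone solutions coated onto inner walls of glass tubes by rotation (900 ppm giving 5 μg/cm^2); after evaporation, 20-50 larvae added per tube and held at 27° C., 85% relative humidity. Efficacy read after 48 h from negative geotactic behaviour; 100% = all larvae dead or moribund.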

[4] = system: adult brown dog ticks (Rhipicephalus sanguineus); experiment: Rhipicephalus sanguineus in-vitro contact test, adult brown dog ticks; conditions: after 48 hours, read-out: activity (efficacy: ticks dead or moribund); for pest or weed control at 100 g/ha: application rate 1 pg/cm^2 (=100 g/ha); for pest or weed control at 5 µg/cm2, 500 g/ha: application rate 5 μg/cm^2 (=500 g/ha)
Procedure, shortened: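 Acetone solution (900 ppm giving 5 μg/cm²) coated on inner walls of glass tubes; after drying, 5-10 adult ticks added and held at room temperature 48 h. Ticks then placed on 45-50 °C plate ≤5 min; those unable to climb away scored dead/moribund, efficacy as % affected.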

[5] = system: adult engorged female ticks (Rhipicephalus microplus); experiment: Rhipicephalus (Boophilus) microplus injection test; conditions: 168 h, egg deposition after 7 days, read-out: activity (efficacy: infertile eggs); for pest or weed control at 4 pg: application rate 4 pg/animal; for pest or weed control at 0.02 mg: application rate 20 μg/animal
Procedure, shortened: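 Five adult engorged female ticks injected into the abdomen with 1 μL compound solution in DMSO, then held in a climate chamber. Fertile egg deposition assessed after 7 days, unclear eggs kept until hatching (about 42 days); efficacy 100% = all eggs infertile, 0% = all fertile.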

[6] = system: cattle ticks (Rhipicephalus microplus) strain Parkhurst, SP-resistant; experiment: Rhipicephalus (Boophilus) microplus dip test; conditions: 168 h, application rate 100 ppm, egg deposition after 7 days, read-out: activity (efficacy: infertile eggs)
Procedure: Rhipicephalus (Boophilus) microplus—Din Test
Test animal: cattle ticks (Rhipicephalus microplus) strain Parkhurst, SP-resistant
Solvent: dimethyl sulfoxide
To produce a suitable preparation of active compound, 10 mg of active compound are dissolved in 0.5 mL solvent, and the concentrate is diluted with water to the desired concentration.
This compound solution is pipetted into tubes. 8-10 engorged, adult, female cattle ticks (Rhipicephalus microplus) are placed in perforated tubes. These tubes are immersed in the aqueous compound solution until the ticks are completely moistened. After the liquid has drained off, the ticks are transferred to a filter paper in a plastic tray and stored in a climate chamber.
After 7 days egg deposition of fertile eggs is monitored. Eggs where fertility is not visible are stored in a climate chamber till hatching after about 42 days. An efficacy of 100% means all eggs are infertile; 0% means all eggs are fertile.

[7] = system: green peach aphid (Myzus persicae); experiment: Myzus persicae oral test; conditions: 120 h, application rate 4 ppm, after 5 days
Procedure, shortened: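 Acetone stock (1 pbw compound/100 pbw solvent) diluted in water; mixed with sugar-supplemented IPL41 medium; parafilm-sealed; mixed aphid population sucks through film; mortality % read at 5 d.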

[8] = system: adult unfed cat fleas (Ctenocephalides felis); experiment: Ctenocephalides felis oral test; conditions: 48 h, read-out: activity (mortality)
Procedure, shortened: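 About 20 adult unfed fleas fed through parafilm on cattle blood containing compound (DMSO stock diluted in blood), blood held at 37 °C and fleas at room temperature. Mortality (%) scored after 2 days.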

[9] = system: Culex quinquefasciatus strain P00; experiment: Culex quinquefasciatus test (CULXFA surface treatment & contact assay); conditions: 24 hours after contact, read-out: efficacy (mortality)
Procedure: Culex quinquefasciatus Test (CULXFA Surface Treatment & Contact Assay)
Solvent: Aceton+2000 ppm rapeseed oil methyl ester (RME)
In order to produce a sufficient, active ingredient containing solution it is necessary to solve the test compound in the solvent-mix (acetone at 2 mg/ml/RME 2 000 ppm). This solution is pipetted onto a glazed tile and after evaporation of the acetone, adult mosquitoes of the species Culex quinquefasciatus strain P00 are placed onto the dried surface. The exposure time is 30 minutes. Mortality in percent (%) is determined 24 hours after contact of the insects to the treated surface. 100% mortality means that all tested insects are dead, whereas 0% means that no insect died.

[10] = system: larvae of the banded cucumber beetle (Diabrotica balteata); experiment: Diabrotica balteata spray test; conditions: 168 h, application rate 100 g/ha (=32 pg/well), after 7 days, read-out: activity (efficacy: seedlings grown)
Procedure, shortened: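 Wheat seedlings, germinated 1 day on agar (5 seeds/well), sprayed with active compound in acetone/DMF diluted in water containing 1000 ppm emulsifier, then infested with 10-20 D. balteata larvae. Efficacy (%) scored after 7 days: 100% = seedlings grown as untreated uninfested control, 0% = no seedlings grown.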

[11] = system: southern root-knot nematode (Meloidogyne incognita); experiment: Meloidogyne incognita test; conditions: 336 h, application rate 20 ppm, after 14 days, read-out: nematicidal activity (based on gall formation)
Procedure: Meloidoyne incognita—Test
Solvent: 125.0 parts by weight of acetone
To produce a suitable preparation of active compound, 1 part by weight of active compound is mixed with the stated amount of solvent, and the concentrate is diluted with water to the desired concentration.
Vessels are filled with sand, a solution of the active ingredient, a suspension containing eggs and larvae of the southern root-knot nematode (Meloidogyne incognita) and salad seeds. The salad seeds germinate and the seedlings grow. Galls develop in the roots.
After 14 days the nematicidal activity is determined based on the percentage of gall formation. 100% means no galls were found and 0% means the number of galls found on the roots of the treated plants was equal to that in untreated control plants.

[12] = system: green peach aphid (Myzus persicae); experiment: Myzus persicae spray test; conditions: 120 h, application rate 100 g/ha, after 5 days
Procedure, shortened: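 Chinese cabbage leaf disks carrying all instars of M. persicae sprayed with compound in acetone/DMF, diluted in water with 1000 ppm alkylarylpolyglycol ether emulsifier. Percent mortality scored after 5 days (100% = all aphids killed).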

[13] = system: adult cat fleas (Ctenocephalides felis); experiment: Ctenocephalides felis in-vitro contact test, adult cat flea; conditions: application rate 5 μg/cm^2 (=500 g/ha), after 48 hours, read-out: activity (efficacy: fleas dead or moribund)
Procedure, shortened: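 Acetone solutions of compound coated onto inner walls of glass tubes (900 ppm giving […]); after drying, 5-10 adult Ctenocephalides felis added and held at room temperature. At 48 h, fleas placed on a 45-50° C heating plate; those unable to climb away scored dead or moribund, expressed as % efficacy.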

[14] = system: larvae of the southern green stink bug (Nezara viridula); experiment: Nezara viridula spray test; conditions: 96 h, after 4 days; for mortality at 100 g/ha: application rate 100 g/ha; for mortality at 500 g/ha: application rate 500 g/ha
Procedure, shortened: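 Compound in acetone/dimethylformamide, diluted in water with 1000 ppm alkylarylpolyglycol ether emulsifier, sprayed onto barley plants carrying stink bug larvae. Mortality (%) scored after 4 days, 100% meaning all insects killed.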

Structure (SMILES)	mortality at 100 g/ha [1]	mortality at 20 mg/m2 [2]	pest or weed control at 100 g/ha [3]	pest or weed control at 500 g/ha [3]	pest or weed control at 100 g/ha [4]	pest or weed control at 5 µg/cm2, 500 g/ha [4]	pest or weed control at 4 pg [5]	pest or weed control at 0.02 mg [5]	mortality at 4 ppm [7]	mortality at 100 ppm [8]	pest or weed control at 100 g/ha [10]	pest or weed control at 20 ppm [11]	pest or weed control at 5 µg/cm2 [13]	mortality at 100 g/ha [14]	further results
C[C@H](NC(=O)c1cc(C(F)(F)F)cc(S(=O)(=O)C2CC2)c1)c1nc(C2CC2)nn1-c1ccc(C#N)cn1 [I-15]	100%	80 to 100%	100%	100%	100%	100%	100%	100%	100%	100%	–	–	–	–	pest or weed control at 100 ppm [6]: 80%; mortality at 4 mg/m2 ([9]; surface concentration 4 mg/m^2, exposure 30 minutes): 80 to 100%
CC(C)c1nc([C@H](C)NC(=O)c2cc(Cl)cc(S(=O)(=O)C3CC3)c2)n(-c2ccc(C#N)cn2)n1 [I-18]	–	–	90%	90%	–	100%	100%	100%	100%	80%	100%	100%	–	–	–
CC(C)c1nc([C@H](C)NC(=O)c2cc(Cl)cc(S(=O)(=O)CC(F)(F)F)c2)n(-c2ccc(C#N)cn2)n1 [I-21, 3-chloro-N-{(1S)-1-[1-(5-cyanopyridin-2-yl)-3-isopropyl-1H-1,2,4-triazol-5-yl]ethyl}-5-[(2,2,2-trifluoroethyl)sulfonyl]benzamide]	–	–	–	–	–	–	100%	100%	–	–	–	90%	–	–	mortality at 100 g/ha [12]: 90%
C[C@H](NC(=O)c1cc(Cl)cc(S(=O)(=O)C2CC2)c1)c1nc(C2CC2)nn1-c1ccc(C#N)cn1 [I-22]	100%	–	100%	100%	–	80%	100%	100%	100%	100%	100%	100%	–	–	–
CCS(=O)(=O)c1cc(Cl)cc(C(=O)N[C@@H](C)c2ncnn2-c2ccc(C#N)cn2)c1 [II-20]	83%	80 to 100%	100%	100%	–	–	100%	100%	100%	–	–	90%	100%	100%	mortality at 500 g/ha [1]: 100%; mortality at 4 mg/m2 [2]: 80 to 100%; mortality at 500 g/ha [14]: 100%; mortality at 20 mg/m2 ([9]; surface concentration 20 mg/m^2, exposure 30 minutes): 80 to 100%
C[C@H](NC(=O)c1cc(Cl)cc(S(=O)(=O)C2CC2)c1)c1ncnn1-c1ccc(C#N)cn1 [II-21]	100%	80 to 100%	100%	100%	–	–	100%	100%	100%	–	–	90%	100%	90%	mortality at 500 g/ha [1]: 100%; mortality at 4 mg/m2 [2]: 80 to 100%; mortality at 500 g/ha [14]: 100%
C[C@H](NC(=O)c1cc(C(F)F)cc(C2CC2)c1)c1ncnn1-c1ccc(C#N)cn1 [II-60]	100%	–	100%	100%	100%	100%	100%	–	100%	90%	100%	90%	100%	90%	–
Cc1nc([C@H](C)NC(=O)c2cc(OC(F)F)cc(C3CC3)c2)n(-c2ccc(C#N)cn2)n1 [II-63]	100%	–	100%	100%	100%	100%	100%	–	100%	–	100%	90%	100%	–	mortality at 100 g/ha [12]: 100%
